Measured values taken from PMC7377239, “Cardiovascular Effects of Polychlorinated Biphenyls and Their Major Metabolites” (Environmental Health Perspectives, 2020).
Where two headings read alike, the source gives them in different places.

Tested on: iCell cardiomyocytes (human iPSC-derived cardiomyocytes)
Test: Intracellular Ca2+ flux / beating parameters in iCell cardiomyocytes (FLIPR tetra), 90 min or 24 h
Assay type: cell-based
Details: Homo sapiens, Cardiomyocyte, 0.00 µM = 100.00; for activity at 0.1 µM: 0.10 µM
Experimental: Details on cardiomyocyte cell culture are described in detail elsewhere ([Grimm et al. 2015b]; [Sirenko et al. 2013a]). Briefly, tissue-culture treated 384 well plates were gelatinized with 25μL per well of 0.1% (w/v) gelatin in water for 2 h at 37°C and 5% CO2 . Individual vials of cells were thawed for 4 min in a water bath maintained at 37°C. Thawed cells were resuspended in 10ml plating medium containing 1:500 (vol/vol) penicillin/streptomycin solution at room temperature (RT). Live cell counts for each cell suspension were determined by trypan blue staining and cells were further diluted to provide final cell densities of 2×10^5 viable cells/ml. Thus, 5,000 cells suspended in 25μL media were transferred per well after the gelatin solution had been discarded. Cell culture plates were rested for 30 min at RT before they were incubated for 48 h at 37°C and 5% CO2 . Then, a media exchange with 30μL of fresh maintenance medium containing 1:500 (vol/vol) penicillin/streptomycin solution was performed, and cell media were subsequently changed every 48 h for 12 d. On the experiment day, the medium was completely exchanged with either 25μL (for Ca^2+ flux assay) or 40μL (for imaging) of fresh medium.
Responses of iCell®-cardiomyocytes to drugs and chemicals were evaluated using intracellular Ca^2+ flux measurements ([Grimm et al. 2015b]; [Sirenko et al. 2013b]). For experiments, 20 mM stock solutions of PCBs and PCB metabolites were prepared in DMSO ( 200× ). Chemical working solutions ( 5× ) were prepared using cardiomyocyte maintenance medium and contained 2.5% (vol/vol) DMSO. These chemical master plates were prepared to include all chemicals in concentration–response (0.05, 0.5, 5, 50, and 500μM ). Negative controls included media-only and vehicle control (i.e., 0.5% vol/vol DMSO in cell culture media) wells. Positive assay controls were consistent with previously published reports ([Grimm et al. 2018]) and included TAB ( 50μM ) as a cytotoxic control, and isoproterenol ( 0.1–10μM ), propranolol ( 0.1–5 μM ), cisapride ( 0.01–1μM ), and doxorubicin ( 0.1–5μM ) as chemicals associated with specific effects on beating and ion flux. Each test chemical was screened in triplicate for each concentration.
Experiments started with the addition of 25μL of prewarmed 2× concentrated calcium dye reagent to sample wells containing 25μL maintenance media. Microplates were then acclimated for 2 h at 37°C. Following equilibration, cardiomyocyte sample wells were treated simultaneously by the addition of 12.5μL of prewarmed 5× chemical solution to iCell®-cardiomyocytes using the automated liquid handler in the FLIPR tetra (Molecular Devices). Treated cell cultures were incubated for either 90 min or 24 h. After the conclusion of the treatment period, the Ca^2+ flux was measured for 100 s at a frequency of 8 Hz using the integrated fluorescence plate reader in the FLIPR tetra (Molecular Devices) using an emission wavelength range of λemission=515–575 nm ( λexcitation=470–495 nm ). Additional instrument settings included exposure time per read of 0.05s, a gain of 2000, an excitation intensity of 30%, and an internal temperature of 37°C.
Ca^2+ flux data were processed in R studio (version 1.0.136, with R version 3.3.2; R Development Core Team) as described elsewhere ([Blanchette et al. 2019]; [Burnett et al. 2019]). Calculated quantitative metrics included the means and coefficients of variation (CV) of the peak height, which can be indicative of cytotoxicity, inhibition, or stimulation of beating. Means of peak frequency, an indicator of positive or negative […], and CV of peak spacing, an indicator of irregular beating, were also derived from Ca^2+ flux traces. Finally, the mean ratio of the decay over rise time was calculated. Increases in the decay/rise time ratio are reflective of delayed repolarization and are a measure for QT prolongation. […]

[1] = 1.5 h, read-out: cm.amp.avg.90min
[2] = 1.5 h, read-out: cm.amp.cv.90min
[3] = 1.5 h, read-out: cm.decay.rise.90min
[4] = 1.5 h, read-out: cm.spacing.cv.90min
[5] = 24 h, read-out: cm.amp.avg.24hrs
[6] = 24 h, read-out: cm.amp.cv.24hrs
[7] = 24 h, read-out: cm.decay.rise.24hrs
[8] = 24 h, read-out: cm.spacing.cv.24hrs

Oc1ccc(O)c(-c2ccc(Cl)cc2)c1 [2',5'-DiOH PCB3]
activity at 0.01 µM [1]: 102%
activity at 0.01 µM [2]: 90%
activity at 0.01 µM (1.5 h, read-out: cm.bpm.90min): 99.1%
activity at 0.01 µM [3]: 97.4%
activity at 0.01 µM [4]: 113%
activity at 0.1 µM [1]: 105%
activity at 0.1 µM [2]: 110%
activity at 0.1 µM (1.5 h, read-out: cm.bpm.90min): 100%
activity at 0.1 µM [3]: 95.6%
activity at 0.1 µM [4]: 94%
activity at 1 µM [1]: 106%
activity at 1 µM [2]: 93.3%
activity at 1 µM (1.5 h, read-out: cm.bpm.90min): 92.8%
activity at 1 µM [3]: 98.3%
activity at 1 µM [4]: 107%
activity at 10 µM [1]: 110%
activity at 10 µM [2]: 112%
activity at 10 µM (1.5 h, read-out: cm.bpm.90min): 104%
activity at 10 µM [3]: 105%
activity at 10 µM [4]: 132%
activity at 100 µM [1]: 9.07%
activity at 100 µM [2]: 380%
activity at 100 µM (1.5 h, read-out: cm.bpm.90min): 7.52%
activity at 100 µM [3]: 21.5%
activity at 100 µM [4]: 381%
activity at 0.01 µM [5]: 161%
activity at 0.01 µM [6]: 75.5%
activity at 0.01 µM (24 h, read-out: cm.bpm.24hrs): 105%
activity at 0.01 µM [7]: 98.5%
activity at 0.01 µM [8]: 110%
activity at 0.1 µM [5]: 147%
activity at 0.1 µM [6]: 75%
activity at 0.1 µM (24 h, read-out: cm.bpm.24hrs): 100%
activity at 0.1 µM [7]: 101%
activity at 0.1 µM [8]: 93.3%
activity at 1 µM [5]: 141%
activity at 1 µM [6]: 69.9%
activity at 1 µM (24 h, read-out: cm.bpm.24hrs): 92.6%
activity at 1 µM [7]: 109%
activity at 1 µM [8]: 89%
activity at 10 µM [5]: 0%
activity at 10 µM [6]: 0%
activity at 10 µM (24 h, read-out: cm.bpm.24hrs): 0%
activity at 10 µM [7]: 0%
activity at 10 µM [8]: 0%
activity at 100 µM [5]: 0%
activity at 100 µM [6]: 0%
activity at 100 µM (24 h, read-out: cm.bpm.24hrs): 0%
activity at 100 µM [7]: 0%
activity at 100 µM [8]: 0%
